Reference: ChEMBL document CHEMBL1201862, “PubChem BioAssay data set” (2004)
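A five-concentration, 48-hour dose response in 96-well plates underlies each endpoint, interpolated linearly between surrounding concentrations. GI50 is the concentration that inhibits growth by half.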 Activity calls are given as the source filed them. Cut-off read from the data, not from the text of the source: active = GI50 up to about 1.1 µM and inactive = higher.

Experiments:
Test in all cases: NCI tumour cell line growth inhibition, 48 h
[1] = system: HCC 2998
[2] = system: A549
[3] = system: UO-31
[4] = system: SNB-19
[5] = system: OVCAR-4
[6] = system: OVCAR-5
[7] = system: PC-3
[8] = system: K562
[9] = system: NCI/ADR-RES
[10] = system: ACHN
[11] = system: 786-0
[12] = system: BT-549
[13] = system: M14
[14] = system: Malme-3M
[15] = system: HOP-92
[16] = system: HOP-62
[17] = system: LOX IMVI
[18] = system: SK-MEL-2
[19] = system: MOLT-4
[20] = system: SF-295

SMILES	GI50 [1]	GI50 [2]	GI50 [3]	GI50 [4]	GI50 [5]	GI50 [6]	GI50 [7]	GI50 [8]	GI50 [9]	GI50 [10]	GI50 [11]	GI50 [12]	GI50 [13]	GI50 [14]	GI50 [15]	GI50 [16]	GI50 [17]	GI50 [18]	GI50 [19]	GI50 [20]
O=C(OCc1ccccc1CN1CCOCC1)c1ccc(Br)cc1	46.5 µM (inactive)	45.6 µM (inactive)	95.7 µM (inactive)	> 100 µM (inactive)	43.5 µM (inactive)	73.1 µM (inactive)	85.5 µM (inactive)	0.0209 µM (active)	42 µM (inactive)	> 100 µM (inactive)	> 100 µM (inactive)	74.8 µM (inactive)	52.8 µM (inactive)	23.3 µM (inactive)	93.1 µM (inactive)	72.3 µM (inactive)	55 µM (inactive)	36 µM (inactive)		
CN(C)c1ccc(/C=C2\N=C(c3ccccc3)N(c3nc4ccc(Sc5ccccc5)cc4[nH]3)C2=O)cc1	17.4 µM (inactive)	41.5 µM (inactive)	59.3 µM (inactive)	49.1 µM (inactive)	40.3 µM (inactive)	41.8 µM (inactive)	39.1 µM (inactive)	26.4 µM (inactive)	25.9 µM (inactive)	81.8 µM (inactive)	42.2 µM (inactive)	34.9 µM (inactive)	43.6 µM (inactive)	99.8 µM (inactive)	94.4 µM (inactive)	33.1 µM (inactive)	45.2 µM (inactive)	20.8 µM (inactive)	30.2 µM (inactive)	23.6 µM (inactive)
COC(=O)c1csc([C@@H](OC(=O)[C@H](C)[C@H](CCCC(C)(Cl)Cl)OC(=O)c2csc([C@H](O)CO)n2)C(C)C)n1	10.2 µM (inactive)	17.9 µM (inactive)	6.93 µM (inactive)	13.6 µM (inactive)	10 µM (inactive)	15.5 µM (inactive)	13.6 µM (inactive)	16.4 µM (inactive)	18.3 µM (inactive)	13.1 µM (inactive)	14 µM (inactive)	17.1 µM (inactive)	17.8 µM (inactive)	17.3 µM (inactive)	10.7 µM (inactive)	18.4 µM (inactive)	10.5 µM (inactive)	15.3 µM (inactive)	16.3 µM (inactive)	15.7 µM (inactive)
COc1cc(C2c3cc4c(cc3[C@@H](Nc3ccc(C#N)cc3)C3COC(=O)[C@H]23)OCO4)cc(OC)c1O (stereo partly specified)	0.0693 µM (active)	0.166 µM (active)	1.62 µM (inactive)	1.39 µM (inactive)	3.43 µM (inactive)	5.64 µM (inactive)	9.82 µM (inactive)	0.462 µM (active)	3.98 µM (inactive)	0.184 µM (active)	0.724 µM (active)	7.74 µM (inactive)	1.35 µM (inactive)	1.29 µM (inactive)	1.02 µM (active)	0.592 µM (active)	1.08 µM (active)	14.6 µM (inactive)	0.274 µM (active)	0.767 µM (active)
Nc1c2c(nc3ccccc13)-c1ccccc1NCCC2	13.9 µM (inactive)	47.4 µM (inactive)	25 µM (inactive)	53 µM (inactive)	47.3 µM (inactive)	35.6 µM (inactive)	20.4 µM (inactive)	23.4 µM (inactive)	68.2 µM (inactive)	36.6 µM (inactive)	16.7 µM (inactive)	50.5 µM (inactive)	17.4 µM (inactive)	18 µM (inactive)	13.9 µM (inactive)	16.6 µM (inactive)	16.8 µM (inactive)	18 µM (inactive)	24.6 µM (inactive)	17.7 µM (inactive)
CCOC(=O)c1ccc(C(=O)/C(C#N)=C2\CCCN2)[nH]1	> 100 µM (inactive)	50.5 µM (inactive)	> 100 µM (inactive)	> 100 µM (inactive)	> 100 µM (inactive)	> 100 µM (inactive)	67.8 µM (inactive)	52.6 µM (inactive)	78.3 µM (inactive)		> 100 µM (inactive)	> 100 µM (inactive)	> 100 µM (inactive)	> 100 µM (inactive)	> 100 µM (inactive)	> 100 µM (inactive)	> 100 µM (inactive)	97.1 µM (inactive)	48.2 µM (inactive)	> 100 µM (inactive)
CC[C@H]1C=CCC[C@@]2(C[C@@H]3CC[C@@H]4[C@H](C(=O)OCCCCCCCCCCCCCCCC(=O)N(CCCNC(C)=O)C[C@H](CCNC(C)=O)OC(C)=O)[C@]5(CCC[C@@H](C)O5)NC(=[N+]34)N2)O1	0.023 µM (active)	0.215 µM (active)	1.2 µM (inactive)	0.533 µM (active)	0.183 µM (active)	0.0557 µM (active)	0.0349 µM (active)	0.168 µM (active)	2.74 µM (inactive)	0.382 µM (active)	0.109 µM (active)	0.453 µM (active)	0.129 µM (active)	0.21 µM (active)	0.0659 µM (active)	0.494 µM (active)	0.0277 µM (active)	0.0404 µM (active)	0.0328 µM (active)	0.391 µM (active)
O=C(CCN1CCOCC1)Nc1ccc2sc3ccccc3c(=O)c2n1	33.9 µM (inactive)	38.9 µM (inactive)	25.8 µM (inactive)	49.2 µM (inactive)	61.1 µM (inactive)	> 100 µM (inactive)	18.2 µM (inactive)	8.49 µM (inactive)	43.4 µM (inactive)	35.5 µM (inactive)	31.6 µM (inactive)	28.7 µM (inactive)	37.8 µM (inactive)	20.7 µM (inactive)	45.3 µM (inactive)	44.7 µM (inactive)	19.6 µM (inactive)	64 µM (inactive)	> 10 µM (inactive)	82.4 µM (inactive)
Cc1ccc(C)n1-c1ccccc1C1SCCCS1	> 100 µM (inactive)	98.9 µM (inactive)	> 100 µM (inactive)	> 100 µM (inactive)	> 100 µM (inactive)	> 100 µM (inactive)	> 100 µM (inactive)	> 100 µM (inactive)	> 100 µM (inactive)	> 100 µM (inactive)	> 100 µM (inactive)	> 100 µM (inactive)	57.1 µM (inactive)	> 100 µM (inactive)	> 100 µM (inactive)	50.8 µM (inactive)	> 100 µM (inactive)	> 100 µM (inactive)	> 100 µM (inactive)	54.1 µM (inactive)
CCOc1cc(NC(C)=O)ccc1C(=O)NNS(=O)(=O)c1ccc(NC(C)=O)cc1	> 100 µM (inactive)	72.8 µM (inactive)	62.4 µM (inactive)	77.4 µM (inactive)	73.6 µM (inactive)	> 100 µM (inactive)	46.7 µM (inactive)	38 µM (inactive)	69.8 µM (inactive)	> 100 µM (inactive)	42.3 µM (inactive)	> 100 µM (inactive)	56 µM (inactive)	86.7 µM (inactive)	61.9 µM (inactive)	63.5 µM (inactive)	55.7 µM (inactive)	28.8 µM (inactive)	37.2 µM (inactive)	39.4 µM (inactive)
CCOC(=O)/C=C(\C(=O)OCC)n1ccc(=O)n(Cc2cn(CCCCOC(C)=O)nn2)c1=O	21.6 µM (inactive)	21.9 µM (inactive)	15.3 µM (inactive)	> 39.7 µM (inactive)	19.4 µM (inactive)	14.3 µM (inactive)	17.1 µM (inactive)	4.59 µM (inactive)	19.9 µM (inactive)	5.33 µM (inactive)	7.66 µM (inactive)	10.4 µM (inactive)	23.9 µM (inactive)	2.18 µM (inactive)	2.55 µM (inactive)	20.7 µM (inactive)	14.9 µM (inactive)	18.8 µM (inactive)	2.4 µM (inactive)	35.9 µM (inactive)
O=c1ccc2cc(O)c(O)cc2o1 [ESCULETIN]	> 100 µM (inactive)	> 100 µM (inactive)	> 100 µM (inactive)	> 100 µM (inactive)	97.3 µM (inactive)	> 100 µM (inactive)	> 92.9 µM (inactive)	> 100 µM (inactive)	> 100 µM (inactive)	> 100 µM (inactive)	> 100 µM (inactive)	> 100 µM (inactive)	> 100 µM (inactive)	> 100 µM (inactive)	> 100 µM (inactive)	> 100 µM (inactive)	> 100 µM (inactive)	> 100 µM (inactive)	> 100 µM (inactive)	> 100 µM (inactive)
c1ccc(/C(=N\Nc2nc3ccccc3[nH]2)c2ccccn2)cc1	1.73 µM (inactive)	0.596 µM (active)	0.291 µM (active)	1.22 µM (inactive)	0.208 µM (active)	0.733 µM (active)	0.182 µM (active)	0.222 µM (active)	0.284 µM (active)	0.268 µM (active)	0.31 µM (active)	1.19 µM (inactive)	0.361 µM (active)	0.687 µM (active)	0.238 µM (active)	0.324 µM (active)	0.516 µM (active)	4.09 µM (inactive)	0.012 µM (active)	1.69 µM (inactive)
CCN(CC)c1nc(=O)c(C(=O)C(C)(C)C)c(C(C)(C)C)o1	> 100 µM (inactive)	> 100 µM (inactive)		98.4 µM (inactive)	> 100 µM (inactive)	> 100 µM (inactive)	> 100 µM (inactive)	> 100 µM (inactive)	> 100 µM (inactive)	> 100 µM (inactive)	> 100 µM (inactive)	> 100 µM (inactive)	> 100 µM (inactive)	> 100 µM (inactive)	> 100 µM (inactive)	> 100 µM (inactive)	> 100 µM (inactive)	> 100 µM (inactive)	> 100 µM (inactive)	> 100 µM (inactive)
